In ChEMBL document CHEMBL3352071, “Benzimidazoles: novel mycobacterial gyrase inhibitors from scaffold morphing” (ACS Med Chem Lett, 2014):
Values after ≈ are worked out from the molar mass of the structure shown.

Experiments:
Assay type in all cases: functional
[1] = tested on: Mycobacterium tuberculosis; assay: Antimicrobial activity against 5-(((3S,4R)-3-fluoro-1-(2-(7-methoxy-2-oxo-1,5-naphthyridin-1(2H)-yl)ethyl)piperidin-4-ylamino)methyl)-2-methylnicotinonitrile resistant Mycobacterium tuberculosis H37Rv ATCC 27294 containing DNA gyrase D89N mutant
[2] = tested on: Mycobacterium tuberculosis; assay: Antimicrobial activity against 2-oxo-1-(2-(4-((3-oxo-3,4-dihydro-2H-pyrido[3,2-b][1,4]oxazin-6-yl)methylamino)piperidin-1-yl)ethyl)-1,2-dihydroquinoline-7-carbonitrile resistant Mycobacterium tuberculosis H37Rv ATCC 27294 containing DNA gyrase A74V mutant
[3] = tested on: Mycobacterium tuberculosis; assay: Antimicrobial activity against moxicillin resistant Mycobacterium tuberculosis H37Rv ATCC 27294 containing DNA gyrase G88N mutant

## N#Cc1ccc2ccc(=O)n(CCN3CCC(NCc4ccc5c(n4)NC(=O)CO5)CC3)c2c1
[1]
  MIC: >100 µM
[2]
  MIC: 4 µM (≈ 1.83 µg/mL)
[3]
  MIC: <0.19 µM

## COc1cnc2ccc(=O)n(CCN3CCC(c4nc5cc(C(F)(F)F)ccc5[nH]4)CC3)c2c1
[1]
  MIC: 25 µM (≈ 11.8 µg/mL)
[2]
  MIC: 50 µM (≈ 23.6 µg/mL)
[3]
  MIC: 0.78 µM (≈ 0.368 µg/mL)

## COc1cnc2ccc(=O)n(CCN3CCC(c4nc5cc(Cl)c(F)cc5[nH]4)CC3)c2c1
[1]
  MIC: 25 µM (≈ 11.4 µg/mL)
[2]
  MIC: 100 µM (≈ 45.6 µg/mL)
[3]
  MIC: 0.06 µM (≈ 0.0274 µg/mL)

## COc1cnc2ccc(=O)n(CCN3CCC(c4nc5cc(C#N)c(C)cc5[nH]4)CC3)c2c1
[1]
  MIC: 100 µM (≈ 44.3 µg/mL)
[2]
  MIC: >100 µM
[3]
  MIC: 0.78 µM (≈ 0.345 µg/mL)

## COc1cnc2ccc(=O)n(CCN3CCN(c4nc5cc(C#N)c(C)cc5[nH]4)CC3)c2c1
[1]
  MIC: 100 µM (≈ 44.4 µg/mL)
[2]
  MIC: >100 µM
[3]
  MIC: 1.56 µM (≈ 0.692 µg/mL)

## NS(=O)(=O)c1ccc(Oc2cnc3ccc(=O)n(CCN4CCC(c5nc6cc(C(F)(F)F)ccc6[nH]5)CC4)c3c2)cc1
[1]
  MIC: 12.5 µM (≈ 7.66 µg/mL)
[2]
  MIC: 25 µM (≈ 15.3 µg/mL)
[3]
  MIC: 0.39 µM (≈ 0.239 µg/mL)

## O=c1ccc2ncc(F)cc2n1CCN1CCC(NCc2ccc(C(F)(F)F)nc2)CC1
[1]
  MIC: >100 µM
[2]
  MIC: 2 µM (≈ 0.899 µg/mL)
[3]
  MIC: <0.19 µM

## O=C(O)c1cn(C2CC2)c2cc(N3CCNCC3)c(F)cc2c1=O [CIPROFLOXACIN]
[1]
  MIC: 16 µM (≈ 5.3 µg/mL)
[2]
  MIC: 0.5 µM (≈ 0.166 µg/mL)
[3]
  MIC: 8 µM (≈ 2.65 µg/mL)

## NNC(=O)c1ccncc1 [ISONIAZID]
[1]
  MIC: 0.03 µM (≈ 0.00411 µg/mL)
[2]
  MIC: 0.06 µM (≈ 0.00823 µg/mL)
[3]
  MIC: 0.06 µM (≈ 0.00823 µg/mL)

## COc1c(N2C[C@@H]3CCCN[C@@H]3C2)c(F)cc2c(=O)c(C(=O)O)cn(C3CC3)c12 [MOXIFLOXACIN]
[1]
  MIC: 2 µM (≈ 0.803 µg/mL)
[2]
  MIC: 0.25 µM (≈ 0.1 µg/mL)
[3]
  MIC: 4 µM (≈ 1.61 µg/mL)

## CO[C@H]1/C=C/O[C@@]2(C)Oc3c(C)c(O)c4c(O)c(c(/C=N/N5CCN(C)CC5)c(O)c4c3C2=O)NC(=O)/C(C)=C\C=C\[C@H](C)[C@H](O)[C@@H](C)[C@@H](O)[C@@H](C)[C@H](OC(C)=O)[C@@H]1C [RIFAMPIN]
[2]
  MIC: 0.008 µM (≈ 0.00658 µg/mL)
[3]
  MIC: 0.008 µM (≈ 0.00658 µg/mL)
